# Reference: the supplement of paper PMC10307832
# What was measured:
# Test in all cases: relative viability (nuclei count vs DMSO), 5 days (fraction); higher = more cells survive
# 17-AAG + Pictilisib = compound: C=CCNC1=C2C[C@@H](C)C[C@H](OC)[C@H](O)[C@@H](C)/C=C(\C)[C@H](OC(N)=O)[C@@H](OC)/C=C\C=C(/C)C(=O)NC(=CC1=O)C2=O [17-AAG] + CS(=O)(=O)N1CCN(Cc2cc3nc(-c4cccc5[nH]ncc45)nc(N4CCOCC4)c3s2)CC1 [Pictilisib] (partner 1 µM)
# Method in brief: (§1)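 The day after seeding in 1536-well plates, lung cancer cell lines were treated by pin tool with a single drug, or with a fixed anchor-drug dose together with five library-drug doses (not always all listed) in √10 steps. After 5 days, a combined fix-and-stain solution (final 0.05% Triton X-100, 1% formaldehyde, 1 ug/ml Hoechst) was added. Nuclei counted on 4× images gave relative viability as treated counts over vehicle counts, reported as the median of duplicate plates.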
# 17-AAG + Navitoclax = compound: C=CCNC1=C2C[C@@H](C)C[C@H](OC)[C@H](O)[C@@H](C)/C=C(\C)[C@H](OC(N)=O)[C@@H](OC)/C=C\C=C(/C)C(=O)NC(=CC1=O)C2=O [17-AAG] + CC1(C)CCC(c2ccc(Cl)cc2)=C(CN2CCN(c3ccc(C(=O)NS(=O)(=O)c4ccc(N[C@H](CCN5CCOCC5)CSc5ccccc5)c(S(=O)(=O)C(F)(F)F)c4)cc3)CC2)C1 [Navitoclax] (partner 0.5 µM)
# Method in brief: as §1
# 17-AAG + Bortezomib = compound: C=CCNC1=C2C[C@@H](C)C[C@H](OC)[C@H](O)[C@@H](C)/C=C(\C)[C@H](OC(N)=O)[C@@H](OC)/C=C\C=C(/C)C(=O)NC(=CC1=O)C2=O [17-AAG] + CC(C)C[C@H](NC(=O)[C@H](Cc1ccccc1)NC(=O)c1cnccn1)B(O)O [Bortezomib] (partner 0.002 µM)
# Method in brief: as §1
# 17-AAG + Linsitinib = compound: C=CCNC1=C2C[C@@H](C)C[C@H](OC)[C@H](O)[C@@H](C)/C=C(\C)[C@H](OC(N)=O)[C@@H](OC)/C=C\C=C(/C)C(=O)NC(=CC1=O)C2=O [17-AAG] + C[C@]1(O)C[C@@H](c2nc(-c3ccc4ccc(-c5ccccc5)nc4c3)c3c(N)nccn32)C1 [Linsitinib] (partner 1 µM)
# Method in brief: as §1
# 17-AAG + Olaparib = compound: C=CCNC1=C2C[C@@H](C)C[C@H](OC)[C@H](O)[C@@H](C)/C=C(\C)[C@H](OC(N)=O)[C@@H](OC)/C=C\C=C(/C)C(=O)NC(=CC1=O)C2=O [17-AAG] + O=C(c1cc(Cc2n[nH]c(=O)c3ccccc23)ccc1F)N1CCN(C(=O)C2CC2)CC1 [Olaparib] (partner 8 µM)
# Method in brief: as §1
# 17-AAG + Crizotinib = compound: C=CCNC1=C2C[C@@H](C)C[C@H](OC)[C@H](O)[C@@H](C)/C=C(\C)[C@H](OC(N)=O)[C@@H](OC)/C=C\C=C(/C)C(=O)NC(=CC1=O)C2=O [17-AAG] + C[C@@H](Oc1cc(-c2cnn(C3CCNCC3)c2)cnc1N)c1c(Cl)ccc(F)c1Cl [Crizotinib] (partner 1 µM)
# Method in brief: as §1
# 17-AAG + Foretinib = compound: C=CCNC1=C2C[C@@H](C)C[C@H](OC)[C@H](O)[C@@H](C)/C=C(\C)[C@H](OC(N)=O)[C@@H](OC)/C=C\C=C(/C)C(=O)NC(=CC1=O)C2=O [17-AAG] + COc1cc2c(Oc3ccc(NC(=O)C4(C(=O)Nc5ccc(F)cc5)CC4)cc3F)ccnc2cc1OCCCN1CCOCC1 [Foretinib] (partner 0.25 µM)
# Method in brief: as §1
# 17-AAG + Alpelisib = compound: C=CCNC1=C2C[C@@H](C)C[C@H](OC)[C@H](O)[C@@H](C)/C=C(\C)[C@H](OC(N)=O)[C@@H](OC)/C=C\C=C(/C)C(=O)NC(=CC1=O)C2=O [17-AAG] + Cc1nc(NC(=O)N2CCC[C@H]2C(N)=O)sc1-c1ccnc(C(C)(C)C(F)(F)F)c1 [Alpelisib] (partner 2 µM)
# Method in brief: as §1
# 17-AAG + Lapatinib = compound: C=CCNC1=C2C[C@@H](C)C[C@H](OC)[C@H](O)[C@@H](C)/C=C(\C)[C@H](OC(N)=O)[C@@H](OC)/C=C\C=C(/C)C(=O)NC(=CC1=O)C2=O [17-AAG] + CS(=O)(=O)CCNCc1ccc(-c2ccc3ncnc(Nc4ccc(OCc5cccc(F)c5)c(Cl)c4)c3c2)o1 [Lapatinib] (partner 2 µM)
# Method in brief: as §1
# 17-AAG = compound: C=CCNC1=C2C[C@@H](C)C[C@H](OC)[C@H](O)[C@@H](C)/C=C(\C)[C@H](OC(N)=O)[C@@H](OC)/C=C\C=C(/C)C(=O)NC(=CC1=O)C2=O [17-AAG]
# Method in brief: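 Viability was defined as treated-well nuclei divided by vehicle-well nuclei, with the median taken over replicate plates. Cells from lung cancer lines sat overnight at 37 °C in 1536-well plates, received five √10-spaced library-drug doses by pinning on vehicle-anchored plates, and grew 5 days without medium change before one-step fixation, permeabilisation and Hoechst staining, 4× imaging and MetaXpress nuclear counts. Only plates with control CV under 25% and at least one doubling were kept.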
# 17-AAG + Phenformin = compound: C=CCNC1=C2C[C@@H](C)C[C@H](OC)[C@H](O)[C@@H](C)/C=C(\C)[C@H](OC(N)=O)[C@@H](OC)/C=C\C=C(/C)C(=O)NC(=CC1=O)C2=O [17-AAG] + N=C(N)NC(=N)NCCc1ccccc1 [Phenformin] (partner 250 µM)
# Method in brief: as §1
# 17-AAG + Dasatinib = compound: C=CCNC1=C2C[C@@H](C)C[C@H](OC)[C@H](O)[C@@H](C)/C=C(\C)[C@H](OC(N)=O)[C@@H](OC)/C=C\C=C(/C)C(=O)NC(=CC1=O)C2=O [17-AAG] + Cc1nc(Nc2ncc(C(=O)Nc3c(C)cccc3Cl)s2)cc(N2CCN(CCO)CC2)n1 [Dasatinib] (partner 0.075 µM)
# Method in brief: as §1
# 17-AAG + Tozasertib = compound: C=CCNC1=C2C[C@@H](C)C[C@H](OC)[C@H](O)[C@@H](C)/C=C(\C)[C@H](OC(N)=O)[C@@H](OC)/C=C\C=C(/C)C(=O)NC(=CC1=O)C2=O [17-AAG] + Cc1cc(Nc2cc(N3CCN(C)CC3)nc(Sc3ccc(NC(=O)C4CC4)cc3)n2)n[nH]1 [Tozasertib] (partner 0.1 µM)
# Method in brief: as §1
# 17-AAG + OSI-027 = compound: C=CCNC1=C2C[C@@H](C)C[C@H](OC)[C@H](O)[C@@H](C)/C=C(\C)[C@H](OC(N)=O)[C@@H](OC)/C=C\C=C(/C)C(=O)NC(=CC1=O)C2=O [17-AAG] + COc1cccc2cc(-c3nc([C@H]4CC[C@H](C(=O)O)CC4)n4ncnc(N)c34)[nH]c12 [OSI-027] (partner 0.5 µM)
# Method in brief: as §1
# 17-AAG + Luminespib = compound: C=CCNC1=C2C[C@@H](C)C[C@H](OC)[C@H](O)[C@@H](C)/C=C(\C)[C@H](OC(N)=O)[C@@H](OC)/C=C\C=C(/C)C(=O)NC(=CC1=O)C2=O [17-AAG] + CCNC(=O)c1noc(-c2cc(C(C)C)c(O)cc2O)c1-c1ccc(CN2CCOCC2)cc1 [Luminespib] (partner 0.01 µM)
# Method in brief: as §1
cell line,measurement,setting,value
EBC-1,relative viability,17-AAG + Pictilisib; first compound 0.00128 µM,0.477
same,relative viability,17-AAG + Pictilisib; first compound 0.004048 µM,0.157
same,relative viability,17-AAG + Pictilisib; first compound 0.0128 µM,0.13
same,relative viability,17-AAG + Pictilisib; first compound 0.04048 µM,0.185
same,relative viability,17-AAG + Pictilisib; first compound 0.128 µM,0.143
same,relative viability,17-AAG + Navitoclax; first compound 0.00128 µM,0.514
same,relative viability,17-AAG + Navitoclax; first compound 0.004048 µM,0.203
same,relative viability,17-AAG + Navitoclax; first compound 0.0128 µM,0.157
same,relative viability,17-AAG + Navitoclax; first compound 0.04048 µM,0.182
same,relative viability,17-AAG + Navitoclax; first compound 0.128 µM,0.126
same,relative viability,17-AAG + Bortezomib; first compound 0.00128 µM,0.536
same,relative viability,17-AAG + Bortezomib; first compound 0.004048 µM,0.252
same,relative viability,17-AAG + Bortezomib; first compound 0.0128 µM,0.185
same,relative viability,17-AAG + Bortezomib; first compound 0.04048 µM,0.203
same,relative viability,17-AAG + Bortezomib; first compound 0.128 µM,0.165
same,relative viability,17-AAG + Linsitinib; first compound 0.00128 µM,0.851
same,relative viability,17-AAG + Linsitinib; first compound 0.004048 µM,0.579
same,relative viability,17-AAG + Linsitinib; first compound 0.0128 µM,0.162
same,relative viability,17-AAG + Linsitinib; first compound 0.04048 µM,0.139
same,relative viability,17-AAG + Linsitinib; first compound 0.128 µM,0.12
same,relative viability,17-AAG + Olaparib; first compound 0.00128 µM,0.676
same,relative viability,17-AAG + Olaparib; first compound 0.004048 µM,0.407
same,relative viability,17-AAG + Olaparib; first compound 0.0128 µM,0.13
same,relative viability,17-AAG + Olaparib; first compound 0.04048 µM,0.142
same,relative viability,17-AAG + Olaparib; first compound 0.128 µM,0.126
same,relative viability,17-AAG + Crizotinib; first compound 0.00128 µM,0.237
same,relative viability,17-AAG + Crizotinib; first compound 0.004048 µM,0.207
same,relative viability,17-AAG + Crizotinib; first compound 0.0128 µM,0.163
same,relative viability,17-AAG + Crizotinib; first compound 0.04048 µM,0.148
same,relative viability,17-AAG + Crizotinib; first compound 0.128 µM,0.135
same,relative viability,17-AAG + Foretinib; first compound 0.00128 µM,0.101
same,relative viability,17-AAG + Foretinib; first compound 0.004048 µM,0.13
same,relative viability,17-AAG + Foretinib; first compound 0.0128 µM,0.138
same,relative viability,17-AAG + Foretinib; first compound 0.04048 µM,0.104
same,relative viability,17-AAG + Foretinib; first compound 0.128 µM,0.0946
same,relative viability,17-AAG + Alpelisib; first compound 0.00128 µM,0.828
same,relative viability,17-AAG + Alpelisib; first compound 0.004048 µM,0.197
same,relative viability,17-AAG + Alpelisib; first compound 0.0128 µM,0.186
same,relative viability,17-AAG + Alpelisib; first compound 0.04048 µM,0.159
same,relative viability,17-AAG + Alpelisib; first compound 0.128 µM,0.168
same,relative viability,17-AAG + Lapatinib; first compound 0.00128 µM,0.217
same,relative viability,17-AAG + Lapatinib; first compound 0.004048 µM,0.234
same,relative viability,17-AAG + Lapatinib; first compound 0.0128 µM,0.192
same,relative viability,17-AAG + Lapatinib; first compound 0.04048 µM,0.2
same,relative viability,17-AAG + Lapatinib; first compound 0.128 µM,0.2
same,relative viability,17-AAG; 0.00128 µM,1.02
same,relative viability,17-AAG; 0.004048 µM,0.882
same,relative viability,17-AAG; 0.0128 µM,0.166
same,relative viability,17-AAG; 0.04048 µM,0.15
same,relative viability,17-AAG; 0.128 µM,0.132
NCI-H1623,relative viability,17-AAG + Phenformin; first compound 0.00128 µM,0.614
same,relative viability,17-AAG + Phenformin; first compound 0.004048 µM,0.369
same,relative viability,17-AAG + Phenformin; first compound 0.0128 µM,0.323
same,relative viability,17-AAG + Phenformin; first compound 0.04048 µM,0.268
same,relative viability,17-AAG + Phenformin; first compound 0.128 µM,0.285
same,relative viability,17-AAG + Dasatinib; first compound 0.00128 µM,0.625
same,relative viability,17-AAG + Dasatinib; first compound 0.004048 µM,0.351
same,relative viability,17-AAG + Dasatinib; first compound 0.0128 µM,0.284
same,relative viability,17-AAG + Dasatinib; first compound 0.04048 µM,0.265
same,relative viability,17-AAG + Dasatinib; first compound 0.128 µM,0.284
same,relative viability,17-AAG + Tozasertib; first compound 0.00128 µM,0.412
same,relative viability,17-AAG + Tozasertib; first compound 0.004048 µM,0.401
same,relative viability,17-AAG + Tozasertib; first compound 0.0128 µM,0.497
same,relative viability,17-AAG + Tozasertib; first compound 0.04048 µM,0.261
same,relative viability,17-AAG + Tozasertib; first compound 0.128 µM,0.31
same,relative viability,17-AAG + Foretinib; first compound 0.00128 µM,0.87
same,relative viability,17-AAG + Foretinib; first compound 0.004048 µM,0.695
same,relative viability,17-AAG + Foretinib; first compound 0.0128 µM,0.491
same,relative viability,17-AAG + Foretinib; first compound 0.04048 µM,0.304
same,relative viability,17-AAG + Foretinib; first compound 0.128 µM,0.336
same,relative viability,17-AAG + OSI-027; first compound 0.00128 µM,0.475
same,relative viability,17-AAG + OSI-027; first compound 0.004048 µM,0.463
same,relative viability,17-AAG + OSI-027; first compound 0.0128 µM,0.33
same,relative viability,17-AAG + OSI-027; first compound 0.04048 µM,0.254
same,relative viability,17-AAG + OSI-027; first compound 0.128 µM,0.33
same,relative viability,17-AAG + Luminespib; first compound 0.00128 µM,0.555
same,relative viability,17-AAG + Luminespib; first compound 0.004048 µM,0.369
same,relative viability,17-AAG + Luminespib; first compound 0.0128 µM,0.283
same,relative viability,17-AAG + Luminespib; first compound 0.04048 µM,0.273
same,relative viability,17-AAG + Luminespib; first compound 0.128 µM,0.267
same,relative viability,17-AAG; 0.00128 µM,0.978
same,relative viability,17-AAG; 0.004048 µM,0.919
same,relative viability,17-AAG; 0.0128 µM,0.755
same,relative viability,17-AAG; 0.04048 µM,0.31
same,relative viability,17-AAG; 0.128 µM,0.383
